# Test results from patent US4758574A, “2-phenylimidazio (4,5-c) pyridines” (Eli Lilly and Company, priority 1986, dated 1988).
# Where a name gives a salt, the structure may show the parent alone.
# Key:
# [1] = test system: Ventricular Contractility in the Anesthetized Dog; experiment: Ventricular Contractility in the Anesthetized Dog; format: in vivo, Mongrel dogs; conditions: Canis lupus familiaris, iv, i.v. bolus, read-out: ED50 (dose required to produce a peak increase in contractility of 50%)
# Description: Experiments in Anesthetized Dogs Mongrel dogs of either sex ranging in weight from 7 to 14 kg. wer used. Anesthesia was induced with sodium pentobarbital (30 mg./kg., i.v.) and maintained with supplemental doses as required. A positive-pressure pump was used to ventilate the dogs through an endotracheal tube (18 strokes/minute, 20 ml./kg. stroke^-1), and a heating pad kept the body temperature at 37°-38° C. Femoral arterial blood pressure was measured through a polyethylene catheter filled with heparin solution (16 units/ml.) and connected to a Statham pressure transducer. A strain-gauge arch sutured to the right ventricle of the heart measured cardiac contractility. Tension on the gauge was adjusted to 50 g. and the gain of the recorder (Beckman dynograph) was set so that 50 g. caused a 10-mm. pen deflection; cardiac contractile tension was measured as millimeters of pen deflection or grams of tension. The drug was administered following a 30-45 minute equilibrium period as an i.v. bolus (2-5 ml.) in a normal saline vehicle. […] The maximum effects on contractility at various dose levels were determined and plotted and the dose required to produce a 50% increase in contractility (ED50) was determined by interpolation.
# [2] = test system: Cat Papillary Muscles; experiment: Positive Inotropic Activity in Isolated Cat Papillary Muscles; format: cell-based; conditions: Felis catus, control = 100 percent, read-out: Contractility of Papillary Muscle (peak response); for activity at 100 µM: Drug Concentration 10^-4 M; for activity at 10 µM: Drug Concentration 10^-5 M
# Description: Positive Inotropic Activity in Isolated Cat Papillary Muscles […] A platinum hook secured one end of the muscle to an electrode mounted in the bottom of the bath, and a silk thread attached the tendon to a Statham isometric transducer. The baths contained Krebs-Henseleit solution (36° C., bubbled with 95 percent oxygen--5 percent carbon dioxide) of the following millimolar composition: NaCl, 118; KCl, 4.5; CaCl2, 2.5; KH2 PO4, 1.1; MgSO4, 1.2; NaHCO3, 25; and glucose, 11. A base-line tension of 1.5 g. was applied to each muscle. Square-wave pulses (5.0 msec. in duration, three times threshold voltage) delivered through the hook electrode and a second electrode positioned near the top of the muscle evoked 12 contractions/minute, which were recorded on a Grass polygraph. After the muscles had equilibrated for 60 minutes, the recorder gain was adjusted so that the pen deflected 10 mm. The drug was introduced in a solution of normal saline in an amount to bring the final concentration of the drug to 10^-5 or 10^-4 molar. Increases in contractility were tabulated as millimeters of pen deflection in excess of the baseline value. In each experiment the maximum contractility was measured. Test results are summarized in Table I and are expressed as percent of control (control=100 percent). Values are the average of results from 2 to 8 muscles.
Structure (SMILES),ED50 [1] [mg/kg],activity at 100 µM [2] [%],activity at 10 µM [2] [%]
"COc1cc(S(C)(=O)=O)ccc1-c1nc2cnccc2[nH]1 [Example 50, 2-(2-methoxy-4-methylsulfonylphenyl)imidazo[4,5-c]pyridine]",0.02,221,176
"COc1cc([S+](C)[O-])ccc1-c1nc2cnccc2[nH]1 (centres unmarked) [Example 27, 2-(2-methoxy-4-methylsulfinylphenyl)imidazo[4,5-c]pyridine]",0.03,200,245
"COc1cc(OC)cc(-c2nc3cnccc3[nH]2)c1 [Example 32, 2-(3,5-dimethoxyphenyl)imidazo[4,5-c]pyridine]",–,179,115
"Clc1cccc(-c2nc3cnccc3[nH]2)c1 [Example 48, 2-(3-chlorophenyl)imidazo[4,5-c]pyridine]",–,176,107
"COCCOc1cc(OC)ccc1-c1nc2cnccc2[nH]1 [Example 37, 2-[2-(β-methoxyethoxy)-4-methoxyphenyl]imidazo[4,5-c]pyridine]",–,116,109
"CCOc1cc(OC)ccc1-c1nc2cnccc2[nH]1 [Example 28, 2-(2-ethoxy-4-methoxyphenyl)imidazo[4,5-c]pyridine]",–,130,108
"COc1c(C)cc(-c2nc3cnccc3[nH]2)cc1C [Example 21, 2-(3,5-dimethyl-4-methoxyphenyl)imidazo[4,5-c]pyridine hydrochloride]",–,215,127
"COc1cccc(-c2nc3cnccc3[nH]2)c1 [Example 16, 2-(3-methoxyphenyl)imidazo[4,5-c]pyridine hydrochloride]",–,213,114
"COc1cccc(OC)c1-c1nc2cnccc2[nH]1 [Example 33, 2-(2,6-dimethoxyphenyl)imidazo[4,5-c]pyridine hydrochloride]",–,184,88
"CCCCOc1cc(OC)ccc1-c1nc2cnccc2[nH]1 [Example 30, 2-(2-n-butoxy-4-methoxyphenyl)imidazo[4,5-c]pyridine]",–,140,100
"Clc1ccc(-c2nc3cnccc3[nH]2)cc1 [Example 49, 2-(4-chlorophenyl)imidazo[4,5-c]pyridine]",–,175,107
"N#Cc1ccc(-c2nc3cnccc3[nH]2)cc1 [Example 14, 2-(4-cyanophenyl)imidazo[4,5-c]pyridine hydrochloride]",–,164,112
"COc1cc(Cl)ccc1-c1nc2cnccc2[nH]1 [Example 20, 2-(4-chloro-2-methoxyphenyl)imidazo[4,5-c]pyridine hydrochloride]",–,146,147
"COc1ccc(-c2nc3cnccc3[nH]2)c(OCCCSC)c1 [Example 44, 2-[2-(γ-methylmercaptopropoxy)-4-methoxyphenyl]imidazo[4,5-c]pyridine]",–,129,118
"Cc1ccc(-c2nc3cnccc3[nH]2)cc1 [Example 25, 2-(4-methylphenyl)imidazo[4,5-c]pyridine hydrochloride]",–,130,95
"CCCCCOc1cc(OC)ccc1-c1nc2cnccc2[nH]1 [Example 35, 2-(2-n-pentoxy-4-methoxyphenyl)imidazo[4,5-c]pyridine hydrochloride]",–,81,105
"COc1cc(Br)ccc1-c1nc2cnccc2[nH]1 [Example 57, 2-(2-methoxy-4-bromophenyl)imidazo[4,5-c]pyridine hydrochloride]",–,175,134
"CCCOc1cc(SC)ccc1-c1nc2cnccc2[nH]1 [Example 43, 2-(2-n-propoxy-4-methylmercaptophenyl)imidazo[4,5-c]pyridine]",2.2,–,–
"CN(C)c1ccc(-c2nc3cnccc3[nH]2)cc1 [Example 17, 2-(4-dimethylaminophenyl)imidazo[4,5-c]pyridine hydrochloride]",–,175,95

Structure (SMILES),ED50 [1] [mg/kg],activity at 100 µM [2] [%],activity at 10 µM [2] [%]
"O=[N+]([O-])c1cccc(-c2nc3cnccc3[nH]2)c1 [Example 12, 2-(3-nitrophenyl)imidazo[4,5-c]pyridine hydrochloride]",–,105,102
"CCSc1ccc(-c2nc3cnccc3[nH]2)c(OC)c1 [Example 41, 2-(2-methoxy-4-ethylmercaptophenyl)imidazo[4,5-c]pyridine hydrochloride]",–,196,136
"COc1ccccc1-c1nc2cnccc2[nH]1 [Example 18, 2-(2-methoxyphenyl)imidazo[4,5-c]pyridine hydrochloride]",–,163,115
"COc1ccc(-c2nc3cnccc3[nH]2)c(OCCSc2ccccc2)c1 [Example 38, 2-[2-(β-phenylmercaptoethoxy)-4-methoxyphenyl]imidazo[4,5-c]pyridine]",–,109,103
"COc1ccc(-c2nc3cnccc3[nH]2)c(OC)c1OC [Example 22, 2-(2,3,4-trimethoxyphenyl)imidazo[4,5-c]pyridine hydrochloride]",–,221,117
"Clc1cc(Cl)cc(-c2nc3cnccc3[nH]2)c1 [Example 3, 2-(3,5-Dichlorophenyl)imidazo[4,5-c]pyridine hydrochloride]",–,146,117
"CCCCOc1ccc(-c2nc3cnccc3[nH]2)cc1 [Example 19, 2-(4-n-butoxyphenyl)imidazo[4,5-c]pyridine hydrochloride]",–,288,114
"COc1ccc(-c2nc3cnccc3[nH]2)c(OCC[S+]([O-])c2ccccc2)c1 (stereo not drawn) [Example 53, 2-[2-(β-phenylsulfinylethoxy)-4-methoxyphenyl]imidazo[4,5-c]pyridine]",–,96,107
"COc1cc(OC)c(-c2nc3cnccc3[nH]2)c(OC)c1 [Example 34, 2-(2,4,6-trimethoxyphenyl)imidazo[4,5-c]pyridine]",–,137,103
"Fc1ccccc1-c1nc2cnccc2[nH]1 [Example 6, 2-(2-Fluorophenyl)imidazo[4,5-c]pyridine hydrochloride]",–,152,108
"COc1cc(-c2nc3cnccc3[nH]2)cc(OC)c1OC [Example 10, 2-(3,4,5-trimethoxyphenyl)imidazo[4,5-c]pyridine hydrochloride]",–,150,109
"COCCCOc1cc(OC)ccc1-c1nc2cnccc2[nH]1 [Example 36, 2-[2-(γ-methoxypropoxy)-4-methoxyphenyl]imidazo[4,5-c]pyridine]",–,147,100
"COc1cccc(-c2nc3cnccc3[nH]2)c1OC [Example 11, 2-(2,3-dimethoxyphenyl)imidazo[4,5-c]pyridine hydrochloride]",–,90,102
"COc1ccc(OC)c(-c2nc3cnccc3[nH]2)c1 [Example 31, 2-(2,5-dimethoxyphenyl)imidazo[4,5-c]pyridine hydrochloride]",–,194,110
"COc1cc(OC)c(-c2nc3cnccc3[nH]2)cc1OC [Example 40, 2-(2,4,5-trimethoxyphenyl)imidazo[4,5-c]pyridine hydrochloride]",–,129,108
"CCOc1cc(SC)ccc1-c1nc2cnccc2[nH]1 [Example 42, 2-(2-ethoxy-4-methylmercaptophenyl)imidazo[4,5-c]pyridine]",–,149,122
"Cc1ccc(-c2nc3cnccc3[nH]2)cc1C [Example 46, 2-(3,4-dimethylphenyl)imidazo[4,5-c]pyridine hydrochloride]",–,225,133
"Fc1ccc(-c2nc3cnccc3[nH]2)cc1 [Example 5, 2-(4-Fluorophenyl)imidazo[4,5-c]pyridine hydrochloride]",–,163,105
"Fc1cccc(-c2nc3cnccc3[nH]2)c1 [Example 1, 2-(3-Fluorophenyl)imidazo[4,5-c]pyridine hydrochloride]",–,157,112
